Laboratory results reported in the supplement of paper PMC10307832.

Assays:
Experiment in all cases: relative viability (nuclei count vs DMSO), 5 days (fraction); higher = more cells survive
[1] = test system: NCI-H1915
How it was run: (§1)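 For relative viability, nuclei counts in treated wells were divided by those in vehicle wells. Lung cancer cell lines had been pin-tool dosed in 1536-well plates the day after seeding and cultured for 5 days, then fixed and stained in one step (final 0.05% Triton X-100, 1% formaldehyde, 1 ug/ml Hoechst) and imaged at 4×. Doses were one drug alone or a fixed anchor-drug dose plus five library-drug doses (not always all listed) in √10 steps, and values are duplicate-plate medians.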

[2] = test system: NCI-H1993
How it was run: as §1

[3] = test system: NCI-H2023
How it was run: as §1

[4] = test system: NCI-H2085
How it was run: as §1

[5] = test system: NCI-H2126
How it was run: as §1

[6] = test system: NCI-H2347
How it was run: as §1

[7] = test system: NCI-H650
How it was run: as §1

[8] = test system: NCI-H838
How it was run: as §1

[9] = test system: PC-14
How it was run: as §1

[10] = test system: SW 1573
How it was run: as §1

[11] = test system: UMC-11
How it was run: as §1

SMILES: CC(=O)O[C@@]12CO[C@@H]1C[C@H](O)[C@@]1(C)C(=O)[C@H](O)C3=C(C)[C@@H](OC(=O)[C@H](O)[C@@H](NC(=O)OC(C)(C)C)c4ccccc4)C[C@@](O)([C@@H](OC(=O)c4ccccc4)[C@H]21)C3(C)C [Docetaxel] + O=C(CCCCCCC(=O)Nc1ccccc1)NO [Vorinostat] (partner 1 µM)
- relative viability ([1]; first compound 0.000632 µM): 0.258
- relative viability ([1]; first compound 0.002 µM): 0.316
- relative viability ([1]; first compound 0.006325 µM): 0.174
- relative viability ([1]; first compound 0.02 µM): 0.0863
- relative viability ([2]; first compound 0.0002 µM): 0.594
- relative viability ([2]; first compound 0.000632 µM): 0.499
- relative viability ([2]; first compound 0.002 µM): 0.376
- relative viability ([2]; first compound 0.006325 µM): 0.392
- relative viability ([2]; first compound 0.02 µM): 0.246
- relative viability ([3]; first compound 0.0002 µM): 0.466
- relative viability ([3]; first compound 0.002 µM): 0.101
- relative viability ([3]; first compound 0.006325 µM): 0.0951
- relative viability ([3]; first compound 0.02 µM): 0.0577
- relative viability ([4]; first compound 0.0002 µM): 0.82
- relative viability ([4]; first compound 0.000632 µM): 0.734
- relative viability ([4]; first compound 0.002 µM): 0.736
- relative viability ([4]; first compound 0.006325 µM): 0.355
- relative viability ([4]; first compound 0.02 µM): 0.488
- relative viability ([5]; first compound 0.0002 µM): 0.783
- relative viability ([5]; first compound 0.000632 µM): 0.577
- relative viability ([5]; first compound 0.002 µM): 0.312
- relative viability ([5]; first compound 0.006325 µM): 0.337
- relative viability ([6]; first compound 0.0002 µM): 0.726
- relative viability ([6]; first compound 0.000632 µM): 0.554
- relative viability ([6]; first compound 0.002 µM): 0.418
- relative viability ([6]; first compound 0.006325 µM): 0.434
- relative viability ([6]; first compound 0.02 µM): 0.33
- relative viability ([7]; first compound 0.0002 µM): 0.389
- relative viability ([7]; first compound 0.000632 µM): 0.326
- relative viability ([7]; first compound 0.002 µM): 0.262
- relative viability ([7]; first compound 0.006325 µM): 0.2
- relative viability ([7]; first compound 0.02 µM): 0.171
- relative viability ([8]; first compound 0.0002 µM): 0.623
- relative viability ([8]; first compound 0.000632 µM): 0.385
- relative viability ([8]; first compound 0.002 µM): 0.328
- relative viability ([8]; first compound 0.006325 µM): 0.208
- relative viability ([8]; first compound 0.02 µM): 0.16
- relative viability ([9]; first compound 0.0002 µM): 0.725
- relative viability ([9]; first compound 0.000632 µM): 0.245
- relative viability ([9]; first compound 0.002 µM): 0.079
- relative viability ([9]; first compound 0.006325 µM): 0.0579
- relative viability ([9]; first compound 0.02 µM): 0.0282
- relative viability ([10]; first compound 0.0002 µM): 0.547
- relative viability ([10]; first compound 0.000632 µM): 0.305
- relative viability ([10]; first compound 0.002 µM): 0.228
- relative viability ([10]; first compound 0.006325 µM): 0.174
- relative viability ([10]; first compound 0.02 µM): 0.126
- relative viability ([11]; first compound 0.0002 µM): 0.402
- relative viability ([11]; first compound 0.000632 µM): 0.287
- relative viability ([11]; first compound 0.002 µM): 0.155
- relative viability ([11]; first compound 0.006325 µM): 0.203
- relative viability ([11]; first compound 0.02 µM): 0.108
